Data: patent US20260185169A1, “MOLECULAR SIGNATURES TO PREDICT LONG-TERM LIVER FIBROSIS PROGRESSION” (THE BOARD OF REGENTS OF THE UNIVERSITY OF TEXAS SYSTEM, priority 2022, published 2026)
Residues, ends and D or L forms follow the SMILES beside them. *: point of attachment. Cbz = O=C(OCc1ccccc1)*

Assays:
clinical PCLS tissues = test: FPS/PLS response (CES, nCounter) in organotypic ex vivo culture of clinical PCLS tissues; assay type: cell-based, human; details: for FPS response rate (number of responding patients): count of patients with CES-based FPS response; for FPS response rate (number of responding patients) / FPS response rate: PCLS cultured 24 h with agent vs vehicle; for PLS response rate (number of responding patients): count of patients with PLS response; for PLS response rate (number of responding patients) / PLS response rate: ex vivo PCLS culture; for modulation of SLC7A1 (CAT1): drug-level FPS gene modulation in ex vivo PCLS culture; for FPS response rate: percent of patients tested with CES-based FPS response; for PLS response rate: percent of patients tested with PLS response
Excerpt: (§1) Evaluation of galunisertib, erlotinib, AM095, bortezomib, pioglitazone, metformin, epigallocatechin gallate (EGCG), I-BET 151, JQ1, captopril, nizatidine (Selleck Chemicals); MG-132 (Sigma-Aldrich); cenicriviroc (AbbVie) (Table 2) were done in organotypic ex vivo culture of precision-cut liver slice (PCLS) tissues in the FPS validation set 2 as previously described. Patient-derived liver cell spheroids were generated from a cirrhosis patient and high-risk FPS was induced by free fatty acids, and treated with EGCG, bortezomib, cenicriviroc, and/or bezafibrate for 48 h. Mycoplasma-free human hepatic myofibroblast cell lines, LX-2 and TWNT-4, were cultured with MG-132 (20 μM) or DMSO control for 12 and 24 h in triplicates.
(§2) Total RNA was isolated from fixed tissue sections by using High Pure RNA Paraffin kit (Roche), and assessed for quality by qRT-PCR of RPL13A. Total RNA from the PCLS tissues was isolated using RNeasy kit (Qiagen). RNA samples (100-200 ng) were subjected to the PLS/FPS assay implemented in the nCounter platform (NanoString), and transcriptome profiling of the CENTAUR trial samples was performed by RNA-Seq (TrueSeq RNA Access, Illumina). Expression of BCL2, COL1A1, and ACTA2 genes was measured by qRT-PCR (Table 3). Serum protein profiling was performed by using xMAP assay (Luminex).
Total RNA was isolated from three to five 10-μm-thick formalin-fixed paraffin-embedded (FFPE) tissue sections from the PLS/FPS derivation/validation cohorts by using High Pure RNA Paraffin kit (Roche), and lack of severe RNA fragmentation was confirmed by qRT-PCR of a housekeeping gene RPL13A as previously described.^1 From freshly harvested myofibroblast cell lines, LX-2 and TWNT-4, and clinical precision-cut-liver slice (PCLS) tissues stored in RNAlater (ThermoFisher) at −80?C, total RNA was isolated using RNeasy kit (Qiagen), and the RNA integrity number (RIN)>8 by Bioanalyzer (Agilent) was regarded as sufficient quality for expression analysis. Total RNA samples (100 to 500 ng) were subjected to the gene signature assays implemented in the digital transcript counting technology (NanoString) according to manufacturer's instruction. Poor quality profiles were detected based on maximum signal intensity from positive control probes <3,000U. Raw transcript count data were log-transformed (base 2) and scaled by geometric mean of control probe data by using NanoString normalizer module implemented in GenePattern data analysis suite (www.broadinstitute.org/genepattern). Genome-wide transcriptome profiling of the CENTAUR trial samples was performed using 100 to 200 ng total RNA by RNA-Seq using exome-enriched library preparation according to the manufacturer's protocol (TrueSeq, Illumina). Raw sequencing reads were mapped onto the reference human genome (hg19) by using the STAR aligner (ver. 2.6.1b) followed by the read counting on genes via featureCounts in the Subread package (ver. 1.6.1). The raw read counts were further normalized by using the Relative Log Expression (RLE) implemented in the DESeq2 package (ver. 1.22.2). Expression of COL1A1, and ACTA2, and BCL2 genes was measured by qRT-PCR (BioRad) using ddCt method with RPL13A as housekeeping gene, as previously described (refer Table 3 for the primer sequences). Gene expression profiles of the PLS/FPS-inducible cell culture model (cell-culture-derived PLS [cPLS] system) treated with erlotinib, pioglitazone, captopril, and resveratrol were obtained from our previous study (GSE81801).

[1] = test system: PCLS tissue from a chronic hepatitis C patient with F2 fibrosis; test: Validation of combination therapies by liver fibrosis gene panel in ex vivo culture of a clinical fibrotic PCLS tissue; assay type: cell-based, human; details: agent added to EGCG
Excerpt: as §1
To test this idea, synergistic effect of the agents to shift the FPS from high- to low-risk pattern was computationally inferred, i.e., suppression of the high-risk genes and/or induction of the low-risk genes (see materials and methods).

[2] = test system: biliary fibrosis induced by bile duct ligation; details: bile duct ligation in mice; cited from earlier work
LX-2 = test: MG-132 effect on COL1A1, ACTA2 and BCL2 expression (qRT-PCR) in LX-2; assay type: cell-based, human; details: MG-132 20 μM vs DMSO, 12 and 24 h
Excerpt: as §1
as §2, with “(Luminex). […]” for “(Luminex).”

TWNT-4 = test: MG-132 effect on COL1A1, ACTA2 and BCL2 expression (qRT-PCR) in TWNT-4; assay type: cell-based, human; details: MG-132 20 μM vs DMSO, 12 and 24 h
Excerpt: as §1
as §2, with “(Luminex). […]” for “(Luminex).”

[3] = test system: human precision-cut liver slice (PCLS); test: MG-132 effect on COL1A1, ACTA2 and BCL2 expression (qRT-PCR) in ex vivo PCLS culture; assay type: cell-based; details: PCLS from two patients, HCV (F1) and NAFLD (F2); vs DMSO
Excerpt: as §1
as §2, with “(Luminex). […]” for “(Luminex).”

clinical PCLS tissue = test: Immunostaining of cleaved caspase-3, alpha-SMA and GFAP in PCLS tissues cultured with MG-132 or DMSO; assay type: cell-based, human; details: PCLS tissues cultured with MG-132 vs DMSO, five patients
Procedure: FIG. 4A depicts a co-expression gene network defined in the FPS derivation set 1 to 4. Hub genes are indicated with larger nodes. Synthesized association with time to fibrosis progression (Fisher's inverse chi-square statistic) in the FPS derivation set 1 and 2 is shown by red (poor outcome) to blue (good outcome) color scale. […] All assays were performed in triplicates. Green dotted line indicates expression level of the DMSO-treated control. […] Paired tissues from the same patient are connected with a line. Wilcoxon signed-rank test p-value is shown. […] Scale bars indicate 50 μm and 25 μm for upper and lower panels, respectively. […] Scale bars indicate 100 μm. […] NES: normalized enrichment score. FDR: false discovery rate.
Immunostaining was performed for caspase-3 (Asp175) (5A1E, Cell Signaling), alpha-SMA (Abcam), Desmin (DAKO), GFAP (abcam), and Ki-67 (Abcam). TUNEL staining was performed using ApopTag Peroxidase In Situ Apoptosis Detection Kit (EMD Millipore).

| Structure (SMILES) | FPS response rate (number of responding patients) (clinical PCLS tissues) | PLS response rate (number of responding patients) (clinical PCLS tissues) | modulation of SLC7A1 (CAT1) (clinical PCLS tissues) | further results |
| --- | --- | --- | --- | --- |
| Cc1noc(-c2ccc(-c3ccc(CC(=O)O)cc3)cc2)c1NC(=O)O[C@H](C)c1ccccc1 [AM095] | 11 | 8 | similarly striking suppression | FPS response rate (clinical PCLS tissues): 38%; PLS response rate (clinical PCLS tissues): 27.59% |
| Cc1cccc(-c2nn3c(c2-c2ccnc4ccc(C(N)=O)cc24)CCC3)n1 [Galunisertib] | 6 | 7 | similarly striking suppression | – |
| CC(C)C[C@H](NC(=O)[C@H](Cc1ccccc1)NC(=O)c1cnccn1)B(O)O [Bortezomib] | 4 | 5 | – | expression of genes encoding extracellular matrix proteins (COL1A1, HAS2) and fibrogenic drivers (PDGFRB, TGFB1, NOTCH1, LPAR1) [1]: substantially reduced expression; myofibroblast activation and biliary fibrosis [2]: reduced myofibroblast activation and inhibit biliary fibrosis |
| C#Cc1cccc(Nc2ncnc3cc(OCCOC)c(OCCOC)cc23)c1 [Erlotinib] | 11 | 13 | – | – |
| CCc1ccc(CCOc2ccc(CC3SC(=O)NC3=O)cc2)nc1 (stereo not shown) [Pioglitazone] | 6 | 7 | – | – |
| CC(C)C[C@@H](C=O)NC(=O)[C@H](CC(C)C)NC(=O)[C@H](CC(C)C)NC(=O)OCc1ccccc1 [MG132] (Cbz-Leu-Leu-Leu-aldehyde) | 6 | 3 | – | modulation of high-risk FPS genes (gene set enrichment analysis) (clinical PCLS tissues; clinical fibrotic PCLS tissues, ex vivo MG-132, FDR≤0.008): significantly suppressed; expression of COL1A1, ACTA2 and BCL2 (LX-2): suppression; expression of COL1A1, ACTA2 and BCL2 (TWNT-4): suppression; expression of COL1A1, ACTA2 and BCL2 [3]: reduced expression; cleaved-caspase-3-positive cells (apoptosis induction) (clinical PCLS tissue): increased; expression of genes encoding extracellular matrix proteins (COL1A1, HAS2) and fibrogenic drivers (PDGFRB, TGFB1, NOTCH1, LPAR1) [1]: substantially reduced expression; myofibroblast activation and biliary fibrosis [2]: reduced myofibroblast activation and inhibit biliary fibrosis |
| O=C(O[C@@H]1Cc2c(O)cc(O)cc2O[C@@H]1c1cc(O)c(O)c(O)c1)c1cc(O)c(O)c(O)c1 [Epigallocatechin gallate] | 7 | 9 | – | FPS response rate (clinical PCLS tissues): 64%; PLS response rate (clinical PCLS tissues): 81.82% |
| CN(C)C(=N)N=C(N)N [Metformin] | 7 | 6 | similarly striking suppression | – |
| CNC(=C[N+](=O)[O-])NCCSCc1csc(CN(C)C)n1 [Nizatidine] | 3 | 3 | – | – |
